# According to ChEMBL document CHEMBL1152169, “Synthesis and structure-activity relationships of selective norepinephrine reuptake inhibitors (sNRI) with improved pharmaceutical characteristics” (Bioorg Med Chem Lett, 2008):
# Activity calls are given as the source filed them. The rule behind the calls is not given here.
# Target: Sodium-dependent dopamine transporter (Homo sapiens, UniProt Q01959)
# Test: Inhibition of dopamine uptake at human dopamine transporter
row,SMILES,Activity
1,CNCC1(O)Cc2ccccc2C1Sc1ccccc1C (racemic),inactive
2,CNC[C@]1(OC)Cc2ccccc2[C@@H]1Oc1ccccc1C,inactive
3,CNC[C@@]1(O)Cc2ccccc2[C@H]1Oc1ccccc1C,inactive
4,CNC[C@]1(O)Cc2ccccc2[C@@H]1Oc1cccc(F)c1C,inactive
5,CNC[C@]1(O)Cc2ccccc2[C@@H]1Oc1cccc(C)c1C,inactive
6,CNCC1(O)Cc2ccccc2C1Oc1ccccc1C (racemic),inactive
7,CNC[C@]1(O)Cc2ccccc2[C@@H]1Oc1ccc(C)cc1C,inactive
8,CNC[C@]1(O)Cc2ccccc2[C@@H]1Oc1ccccc1F,inactive
9,CNC[C@]1(O)Cc2ccccc2[C@@H]1Oc1ccc(F)cc1C,inactive
10,CNCC1(O)Cc2ccccc2C1Cc1ccccc1C (racemic),inactive
11,CNC[C@]1(O)Cc2ccccc2[C@@H]1Oc1ccccc1C,inactive
12,Cc1ccccc1OC1c2ccccc2CC1(O)CN (racemic),inactive
13,CCc1ccccc1O[C@H]1c2ccccc2C[C@@]1(O)CNC,inactive
14,CNC[C@]1(O)Cc2ccccc2[C@@H]1Oc1cccc(O)c1C,inactive
15,CNC[C@]1(O)Cc2ccccc2[C@@H]1Oc1ccccc1CO,inactive
16,CNC[C@]1(O)Cc2ccccc2[C@@H]1Oc1c(C)cccc1F,inactive
17,CNC[C@@H]1Cc2ccccc2[C@@H]1Oc1ccccc1C,inactive
18,CNC[C@]1(O)Cc2ccccc2[C@@H]1Oc1ccccc1Cl,inactive
19,CCNCC1(O)Cc2ccccc2C1Oc1ccccc1C (racemic),inactive
20,Cc1ccccc1OC1c2ccccc2CC1(O)CNCCO (racemic),inactive
21,CNC[C@]1(O)Cc2ccccc2[C@@H]1Oc1ccccc1-c1cccc2ccccc12,inactive
22,CNC[C@]1(O)Cc2ccccc2[C@@H]1Oc1cc(F)ccc1C,inactive
23,Cc1ccccc1O[C@H]1c2ccccc2C[C@@]1(O)CN,inactive
24,CNC[C@]1(O)Cc2ccccc2[C@@H]1Oc1ccccc1OC,inactive
25,CNC[C@]1(O)Cc2ccccc2[C@@H]1Oc1ccc(O)cc1C,inactive
26,CNC[C@]1(O)Cc2ccccc2[C@@H]1Oc1ccccc1SC,inactive
